# Source: patent publication US9802899B2, “Heterocyclic compounds as pesticides” (BAYER CROPSCIENCE AG, priority 2012, dated 2017)
# Experiment: Determination of the log P values by HPLC (formic acid method)
# Format: physicochemical
# Details: reversed-phase HPLC column (C 18), reversed-phase column (C 18), acidic range (pH 3.4), 55° C.
# Procedure: 1) Description of Method for Determination of the Log P Values (Formic Acid Method)
# Eluents for determination in the acidic range (pH 3.4):
# Eluent A: acetonitrile+1 ml of formic acid/liter. Eluent B: water+0.9 ml of formic acid/liter.
# The lambda max values were determined in the maxima of the chromatographic signals using the UV spectra from 200 nm to 400 nm.
row,Compound,chromatographic logP
1,"N#Cc1cc(F)cc(F)c1-n1ccc(NC(=O)c2ccccc2C(F)(F)F)n1 [Compound I-1-393, N-[1-(2-Cyano-4,6-difluorophenyl)-1H-pyrazol-3-yl]-2-(trifluoromethyl)benzamide]",2.65

# Same assay, conditions: reversed-phase column (C 18), acidic range (pH 3.4), 55° C.
row,Compound,log P
1,CCCn1ncc(I)c1C(=O)Nc1ccn(-c2c(F)cccc2F)n1 [Compound I-1-325],3.11
2,Cc1nnsc1C(=O)Nc1ccn(-c2c(F)cccc2F)n1 [Compound I-1-326],2.15
3,Cc1cnoc1C(=O)Nc1ccn(-c2c(F)cccc2F)n1 [Compound I-1-327],2.24
4,Cn1cnnc1C(=O)Nc1ccn(-c2c(F)cccc2F)n1 [Compound I-1-328],1.51
5,O=C(Nc1ccn(-c2c(F)cccc2F)n1)c1cc(Cl)ccc1C(F)(F)F [Compound I-1-329],3.11
6,O=C(Nc1ccn(-c2c(F)cccc2F)n1)c1ncncc1Cl [Compound I-1-330],2.14
7,O=C(Nc1ccn(-c2c(F)cccc2F)n1)c1cc(F)ccc1C(F)(F)F [Compound I-1-331],2.80
8,Cc1snnc1C(=O)Nc1ccn(-c2c(F)cccc2F)n1 [Compound I-1-332],2.45
9,CC1=C(C(=O)Nc2ccn(-c3c(F)cccc3F)n2)CCCO1 [Compound I-1-333],2.30
10,O=C(Nc1ccn(-c2ccccc2Br)n1)c1c(F)cccc1F [Compound I-1-334],2.70
11,Cc1cccnc1C(=O)Nc1ccn(-c2ccccc2Br)n1 [Compound I-1-336],1.44
12,Cc1ccc(-n2ccc(NC(=O)c3ccccc3Br)n2)c(Cl)c1 [Compound I-1-338],3.23
13,Cc1ccc(-n2ccc(NC(=O)c3ccccc3Cl)n2)c(Cl)c1 [Compound I-1-339],3.20
14,CCOc1cccc(Cl)c1-n1ccc(NC(=O)c2ccccc2C(F)(F)F)n1 [Compound I-1-340],3.15
15,CS(=O)(=O)c1ccccc1C(=O)Nc1ccn(-c2ccccc2Cl)n1 [Compound I-1-341],2.17
16,Cc1cc(NC(=O)c2ccccc2S(C)(=O)=O)nn1-c1ccccc1Cl [Compound I-1-342],1.82
17,Cc1cc(NC(=O)c2ccccc2OC(F)(F)F)nn1-c1ccccc1Cl [Compound I-1-343],2.87
18,O=C(Nc1ccn(-c2ccccc2Cl)n1)c1cccnc1OC(F)(F)F [Compound I-1-344],3.10
19,Cc1cn(-c2ccccc2Cl)nc1NC(=O)c1ccccc1C(F)(F)F [Compound I-1-345],3.01
20,N#Cc1cn(-c2ccccc2Cl)nc1NC(=O)c1ccccc1C(F)(F)F [Compound I-1-346],2.53
21,Cc1cc(NC(=O)c2ccccc2C(F)(F)F)nn1-c1ccccc1Cl [Compound I-1-347],2.58

row,Compound,log P
1,Cc1cn(-c2ccccc2Cl)nc1NC(=O)c1cccnc1C(F)(F)F [Compound I-1-348],2.53
2,Cc1cc(NC(=O)c2cccnc2C(F)(F)F)nn1-c1ccccc1Cl [Compound I-1-349],2.13
3,O=C(Nc1ccn(-c2ccccc2Cl)n1)c1cccc(Cl)c1Cl [Compound I-1-350],3.20
4,O=C(Nc1ccn(-c2ccccc2Cl)n1)c1c(Cl)cccc1Cl [Compound I-1-351],3.00
5,Cc1cn(-c2ccccc2Cl)nc1NC(=O)c1c(F)cccc1F [Compound I-1-352],2.70
6,Cc1cccc(C)c1C(=O)Nc1ccn(-c2ccccc2Cl)n1 [Compound I-1-353],2.97
7,Cc1cn(-c2ccccc2Cl)nc1NC(=O)c1ccccc1Br [Compound I-1-354],2.86
8,Nc1cc(NC(=O)c2ccccc2Br)nn1-c1ccccc1Cl [Compound I-1-355],1.94
9,Cc1cc(NC(=O)c2ccccc2Br)nn1-c1ccccc1Cl [Compound I-1-356],2.45
10,Cc1cn(-c2ccccc2Cl)nc1NC(=O)c1cccnc1Br [Compound I-1-357],2.23
11,O=C(Nc1ccn(-c2ccccc2Cl)n1)c1cccnc1Br [Compound I-1-358],2.22
12,Cc1cc(NC(=O)c2cccnc2Br)nn1-c1ccccc1Cl [Compound I-1-359],1.85
13,Cc1cn(-c2ccccc2Cl)nc1NC(=O)c1ccccc1Cl [Compound I-1-360],2.80
14,Nc1cc(NC(=O)c2ccccc2Cl)nn1-c1ccccc1Cl [Compound I-1-361],1.88
15,N#Cc1cn(-c2ccccc2Cl)nc1NC(=O)c1ccccc1Cl [Compound I-1-362],2.37
16,O=C(Nc1ccn(-c2ccccc2Cl)n1)c1nccnc1Cl [Compound I-1-363],2.45
17,O=C(Nc1ccn(-c2ccccc2Cl)n1)c1cccnc1F [Compound I-1-364],2.38
18,Cc1cn(-c2ccccc2Cl)nc1NC(=O)c1ccccc1I [Compound I-1-365],2.99
19,O=C(Nc1nn(-c2ccccc2Cl)cc1Br)c1ccccc1I [Compound I-1-366],3.12
20,O=C(Nc1nn(-c2ccccc2Cl)cc1I)c1ccccc1I [Compound I-1-367],3.18
21,N#Cc1cn(-c2ccccc2Cl)nc1NC(=O)c1ccccc1I [Compound I-1-368],2.51

row,Compound,log P
1,O=C(Nc1ccn(-c2ccccc2Cl)n1)c1cccnc1I [Compound I-1-369],2.27
2,Cc1occc1C(=O)Nc1ccn(-c2ccccc2Cl)n1 [Compound I-1-370],2.71
3,Cc1nc(C(F)(F)F)c(C(=O)Nc2ccn(-c3ccccc3Cl)n2)s1 [Compound I-1-371],2.88
4,CC1=C(C(=O)Nc2ccn(-c3ccccc3Cl)n2)SCCO1 [Compound I-1-372],2.75
5,CC(C)(C)c1ccccc1C(=O)Nc1ccn(-c2ccccc2Cl)n1 [Compound I-1-373],3.85
6,O=C(Nc1ccn(-c2ccccc2Cl)n1)c1sccc1C(F)F [Compound I-1-374],3.15
7,O=C(Nc1ccn(-c2ccccc2Cl)n1)c1sccc1C(F)(F)F [Compound I-1-375],3.15
8,Cc1cc(NC(=O)c2ncccc2C(F)(F)F)nn1-c1ccccc1Cl [Compound I-1-376],2.57
9,O=C(Nc1ccn(-c2ccccc2Cl)n1)c1sccc1Cl [Compound I-1-377],3.29
10,O=C(Nc1ccn(-c2ccccc2Cl)n1)c1occc1I [Compound I-1-378],2.96
11,O=C(Nc1ccn(-c2ccccc2Cl)n1)c1sccc1I [Compound I-1-379],3.34
12,Cc1cc(NC(=O)c2cnccc2C(F)(F)F)nn1-c1ccccc1Cl [Compound I-1-380],2.09
13,O=C(Nc1ccn(-c2ccccc2Cl)n1)c1cnccc1Cl [Compound I-1-381],2.19
14,Cc1nn(C)c(F)c1C(=O)Nc1ccn(-c2ccccc2Cl)n1 [Compound I-1-382],2.15
15,Cn1nc(C(F)(F)F)c(C(=O)Nc2ccn(-c3ccccc3Cl)n2)c1F [Compound I-1-383],2.86
16,O=C(Nc1ccn(-c2ccccc2Cl)n1)c1c(F)cccc1C(F)(F)F [Compound I-1-384],3.05
17,O=C(Nc1ccn(-c2cnc(Cl)cn2)n1)c1ccccc1C(F)(F)F [Compound I-1-385],2.94
18,O=C(Nc1ccn(-c2cnc(Cl)cn2)n1)c1cccnc1C(F)(F)F [Compound I-1-386],2.45
19,O=C(Nc1ccn(-c2cnc(Cl)cn2)n1)c1c(F)cccc1F [Compound I-1-387],2.67
20,O=C(Nc1ccn(-c2cnc(Cl)cn2)n1)c1ccccc1Br [Compound I-1-388],2.84
21,O=C(Nc1ccn(-c2cnc(Cl)cn2)n1)c1ccccc1Cl [Compound I-1-389],2.82

row,Compound,log P
1,O=C(Nc1ccn(-c2cnc(Cl)cn2)n1)c1ccccc1I [Compound I-1-390],2.96
2,O=C(Nc1ccn(-c2cccnc2Cl)n1)c1ccccc1C(F)(F)F [Compound I-1-391],2.31
3,O=C(Nc1ccn(-c2cccnc2Cl)n1)c1ccccc1Cl [Compound I-1-392],2.13
4,N#Cc1ccccc1-n1ccc(NC(=O)c2ccccc2I)n1 [Compound I-1-394],2.53
5,CCOc1c(Cl)cccc1-n1ccc(NC(=O)c2cccnc2C(F)(F)F)n1 [Compound I-1-395],3.21
6,CCOc1c(F)cccc1-n1ccc(NC(=O)c2ccccc2Br)n1 [Compound I-1-396],2.91
7,CCOc1c(F)cccc1-n1ccc(NC(=O)c2ccccc2Cl)n1 [Compound I-1-397],2.74
8,CCOc1cccc(Cl)c1-n1ccc(NC(=O)c2ccccc2Br)n1 [Compound I-1-398],3.03
9,CCOc1cccc(F)c1-n1ccc(NC(=O)c2ccccc2Br)n1 [Compound I-1-399],2.87
10,O=C(Nc1ccn(-c2cncc(F)n2)n1)c1ccccc1C(F)(F)F [Compound I-1-401],3.33
11,O=C(Nc1ccn(-c2cncc(F)n2)n1)c1cccnc1C(F)(F)F [Compound I-1-402],2.76
12,O=C(Nc1ccn(-c2cncc(F)n2)n1)c1cccnc1Br [Compound I-1-404],3.19
13,O=C(Nc1ccn(-c2cncc(F)n2)n1)c1ccccc1I [Compound I-1-405],3.28
14,COc1ccccc1-n1ccc(NC(=O)c2ccccc2C(F)(F)F)n1 [Compound I-1-406],2.84
15,COc1ccccc1-n1ccc(NC(=O)c2cccnc2C(F)(F)F)n1 [Compound I-1-407],2.37
16,COc1ccccc1-n1ccc(NC(=O)c2c(F)cccc2F)n1 [Compound I-1-408],2.57
17,COc1ccccc1-n1ccc(NC(=O)c2cccnc2Br)n1 [Compound I-1-409],2.12
18,COc1ccccc1-n1ccc(NC(=O)c2ccccc2Cl)n1 [Compound I-1-410],2.70
19,COc1ccccc1-n1ccc(NC(=O)c2ccccc2I)n1 [Compound I-1-411],2.83
20,O=C(Nc1ccn(-c2ccccc2[N+](=O)[O-])n1)c1ccccc1C(F)(F)F [Compound I-1-415],2.63
